Test results taken from patent US20240197761A1, “FUCOSYLATION AND IMMUNE MODULATION IN CANCER” (H. LEE MOFFITT CANCER CENTER AND RESEARCH INSTITUTE, INC., priority 2021, published 2024).

Test system: fucosylated HLA-DRB1 in WM793 cells
Assay: Lectin-mediated proximity ligation assay (L-PLA) of fucosylated HLA-DRB1
Format: cell-based, human
Details: vs. DMSO
Source text: FIGS. 22A-221 show Schematic of L-PLA staining and verification of fucosylated HLA-DRB1 staining, which is weakly associated with tumor peripheral CD4+T cells; and the effects of L-fucose on tumor PD-L1 expression (a) Schematic of lectin-mediated proximity ligation analysis (L-PLA) using fucosylated HLA-DRB1 (fuco-HLA-DRB1) as an example. We stained for (i) HLA-DRB1 using […]-HLA-DRB1 followed by (+) oligo-conjugated PLA secondary and (ii) fucosylated glycan using biotinylated (“B”) AAL lectin followed by D-biotin followed by (−) oligo-conjugated PLA secondary. Ligated PLA oligos were subjected to rolling circle amplification PCR (RCA PCR), giving rise to fluorescent punctae. […] Single melanoma marker, AAL-FITC, and HLA-DRB1 channels are shown in white for clearer visualization. […] (d) FFPE melanoma tissues were subjected to L-PLA HLA-DRB1 staining ±500 mM L-fucose wash and subsequent staining with melanoma marker (MART1+SI10 cocktail), and DAPI. Single melanoma marker and fuco-HLA-DRB1 channels are shown in white for clear visualization. Total loss of fuco-HLA-DRB1 signal in the +L-fucose wash tissue confirms the fucose-specificity of L-PLA for fuco-HLA-DRB1. […]
Laboratories (Burlingame, CA)), on coverslips overnight in 4° C. […] Microscopy images were acquired using a Keyence BZ-X710, and images were process and analyzed using FIJI (NIH).

CC(=O)OC1O[C@@H](C)[C@@H](OC(C)=O)[C@@H](OC(C)=O)[C@@H]1F (stereo partly shown) [FUTi, 2F-peracteyl-fucose, reference compound]
L-PLA staining of endogenous fucosylated HLA-DRB1: lost
